target: Aurora B/INCENP (Homo sapiens, UniProt Q96GD4); experiment: Determination of inhibition of AIK: Aurora B/INCENP direct fluorescence polarization (IMAP) assay; format: biochemical; details: 10 uM ATP, 0.8 nM Aurora B/INCENP; values given as bins; read-out: IC50 of Exemplified Compounds Against AIK B
Protocol: Detection of the reaction product is performed by addition of Progressive IMAP binding reagent (Molecular Devices). Reaction product may be determined quantitatively by FP using an Analyst HT plate reader (Molecular Devices) with an excitation wavelength at 485 nm and emission at 530 nm and using a Fluorescein 505 dichroic mirror.
The assay reaction may be initiated as follows: 2 ul of (3×) 300 nM Fl-Peptide/30 uM ATP was added to each well of the plate, followed by the addition of 2 ul of (3×) inhibitor (2 fold serial dilutions for 11 data points for each inhibitor) containing 15% DMSO. Two microliters of (3×) 2.4 nM AuroraB/INCENP solution may be added to initiate the reaction (final enzyme concentration was 0.8 nM for Aurora B/INCENP). The reaction mixture may then be incubated at room temperature for 45 min, and quenched and developed by addition of 20 ul of 1 to 400 diluted Progressive IMAP binding reagent in 1× proprietary Progressive IMAP binding buffer A. Fluorescence polarization readings of the resulting reaction mixtures may be measured after a 60-minute incubation at room temperature.
IC50 values may be calculated by non-linear curve fitting of the compound concentrations and fluorescent polarization values to the standard IC50 equation.

Sequence of Aurora B/INCENP (Q96GD4 whole entry): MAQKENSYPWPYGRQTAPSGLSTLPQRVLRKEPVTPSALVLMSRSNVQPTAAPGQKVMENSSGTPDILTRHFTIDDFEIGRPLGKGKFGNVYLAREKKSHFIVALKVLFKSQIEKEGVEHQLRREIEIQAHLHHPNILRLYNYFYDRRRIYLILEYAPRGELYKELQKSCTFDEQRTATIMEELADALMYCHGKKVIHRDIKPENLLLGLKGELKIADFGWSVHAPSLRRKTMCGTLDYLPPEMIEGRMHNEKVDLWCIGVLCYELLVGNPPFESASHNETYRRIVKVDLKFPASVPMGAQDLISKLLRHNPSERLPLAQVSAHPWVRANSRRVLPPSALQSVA
Sequence of Aurora B/INCENP (Q9NQS7 whole entry partner): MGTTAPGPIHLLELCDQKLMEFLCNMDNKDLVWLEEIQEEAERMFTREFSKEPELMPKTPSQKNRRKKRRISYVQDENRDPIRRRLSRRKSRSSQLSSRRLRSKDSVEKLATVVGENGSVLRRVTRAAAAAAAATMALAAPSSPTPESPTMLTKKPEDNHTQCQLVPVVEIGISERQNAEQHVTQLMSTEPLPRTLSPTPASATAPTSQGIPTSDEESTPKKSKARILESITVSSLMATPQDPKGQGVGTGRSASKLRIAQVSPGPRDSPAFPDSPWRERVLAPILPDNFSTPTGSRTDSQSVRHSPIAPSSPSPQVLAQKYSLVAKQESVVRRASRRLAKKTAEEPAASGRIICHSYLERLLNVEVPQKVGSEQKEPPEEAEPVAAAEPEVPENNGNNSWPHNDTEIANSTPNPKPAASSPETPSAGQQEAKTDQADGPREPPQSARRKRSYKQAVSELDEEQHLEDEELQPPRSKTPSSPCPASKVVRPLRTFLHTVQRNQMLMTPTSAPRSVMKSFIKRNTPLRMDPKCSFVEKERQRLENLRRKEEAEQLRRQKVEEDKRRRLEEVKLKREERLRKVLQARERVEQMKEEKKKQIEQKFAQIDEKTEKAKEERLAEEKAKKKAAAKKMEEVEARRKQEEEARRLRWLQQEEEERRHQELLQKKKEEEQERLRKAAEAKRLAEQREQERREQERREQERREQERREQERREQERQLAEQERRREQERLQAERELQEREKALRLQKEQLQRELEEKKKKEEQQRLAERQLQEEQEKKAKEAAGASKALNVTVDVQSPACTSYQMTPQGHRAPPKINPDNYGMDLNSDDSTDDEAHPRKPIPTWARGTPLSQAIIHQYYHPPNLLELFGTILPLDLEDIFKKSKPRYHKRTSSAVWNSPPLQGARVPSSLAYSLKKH

SMILES	IC50 [nM]
CCS(=O)(=O)c1cccc(-c2cc(C(=O)NCCCN(C)C)c(C)c3[nH]c4ncc(C)cc4c23)c1 [Compound 115, N-(3-(dimethylamino)propyl)-5-(3-(ethylsulfonyl)phenyl)-3,8-dimethyl-9H-pyrido[2,3-b]indole-7-carboxamide]	8.6 to 13
CNS(=O)(=O)c1cc(-c2ccc(C)c3[nH]c4ncc(C)cc4c23)ccc1OC [Compound 14, 5-(3,8-dimethyl-9H-pyrido[2,3-b]indol-5-yl)-2-methoxy-N-methylbenzenesulfonamide]	< 4
CCS(=O)(=O)c1cccc(-c2ccc(O[C@@H](C)COP(=O)(O)O)c3[nH]c4ncc(C)cc4c23)c1 [Compound 391, (S)-2-(5-(3-(ethylsulfonyl)phenyl)-3-methyl-9H-pyrido[2,3-b]indol-8-yloxy)propyl dihydrogen phosphate]	4 to 5.5
CCS(=O)(=O)c1cccc(-c2c[nH]c(=O)c3[nH]c4ncc(C)cc4c23)c1 [Compound 32, 5-(3-Ethanesulfonyl-phenyl)-3-methyl-7,9-dihydro-dipyrido[2,3-b;4′,3′-d]pyrrol-8-one]	5.6 to 8.5
CCS(=O)(=O)c1cccc(-c2cnc(OCC3CCN(C)CC3)c3[nH]c4ncc(Cl)cc4c23)c1 [Compound 72, 3-Chloro-5-(3-ethanesulfonyl-phenyl)-8-(1-methyl-piperidin-4-ylmethoxy)-9H-dipyrido[2,3-b;4′,3′-d]pyrrole]	< 4
Cc1cnc2[nH]c3c(OC[C@@H](CO)CN(C)C)ccc(-c4cccc(S(=O)(=O)C5CC5)c4)c3c2c1 [Compound 402, (R)-3-(5-(3-(cyclopropylsulfonyl)phenyl)-3-methyl-9H-pyrido[2,3-b]indol-8-yloxy)-2-((dimethylamino)methyl)propan-1-ol]	< 4
Cc1cnc2[nH]c3c(C)c(C(=O)NC4CCN(C)CC4)cc(-c4cccc(S(=O)(=O)C5CC5)c4)c3c2c1 [Compound 154, 5-(3-(cyclopropylsulfonyl)phenyl)-3,8-dimethyl-N-(1-methylpiperidin-4-yl)-9H-pyrido[2,3-b]indole-7-carboxamide]	8.6 to 13
COc1ccc(-c2cccc(NC(C)=O)c2)c2c1[nH]c1ncc(C)cc12 [Compound 162, N-(3-(8-methoxy-3-methyl-9H-pyrido[2,3-b]indol-5-yl)phenyl)acetamide]	5.6 to 8.5
Cc1cnc2[nH]c3c(OC[C@@H](O)CN(C)C)ccc(-c4cccc(S(=O)(=O)C5CC5)c4)c3c2c1 [Compound 313, (S)-1-(5-(3-(cyclopropylsulfonyl)phenyl)-3-methyl-9H-pyrido[2,3-b]indol-8-yloxy)-3-(dimethylamino)propan-2-ol]	< 4
CONC(=O)c1cccc(-c2ccc(OC)c3[nH]c4ncc(C)cc4c23)c1 [Compound 260, N-methoxy-3-(8-methoxy-3-methyl-9H-pyrido[2,3-b]indol-5-yl)benzamide]	> 13
CCS(=O)(=O)c1cccc(-c2cc(C(=O)NCCCN(C)C)cc3[nH]c4ncc(C)cc4c23)c1 [Compound 143, 5-(3-Ethanesulfonyl-phenyl)-3-methyl-9H-pyrido[2,3-b]indole-7-carboxylic acid (3-dimethylamino-propyl)-amide]	> 13
CCSc1ncc(-c2cccc(S(=O)(=O)CC)c2)c2c1[nH]c1ncc(C)cc12 [Compound 76]	5.6 to 8.5
Cc1cccc(-c2cccc3[nH]c4ncccc4c23)c1 [Compound 11, 5-m-tolyl-9H-pyrido[2,3-b]indole]	> 13
CCS(=O)(=O)c1cccc(-c2cnc(NCCCN3CCOCC3)c3[nH]c4ncc(C)cc4c23)c1 [Compound 43, [5-(3-Ethanesulfonyl-phenyl)-3-methyl-9H-dipyrido[2,3-b;4′,3′-d]pyrrol-8-yl]-(3-morpholin-4-yl-propyl)-amine]	5.6 to 8.5
Cc1cnc2[nH]c3c(OCCN4CCC(O)CC4)ccc(-c4cccc(S(=O)(=O)C5CC5)c4)c3c2c1 [Compound 322, 1-(2-(5-(3-(cyclopropylsulfonyl)phenyl)-3-methyl-9H-pyrido[2,3-b]indol-8-yloxy)ethyl)piperidin-4-ol]	< 4
Cc1cnc2[nH]c3c(C)ccc(-c4cccc(S(=O)(=O)N(C)C)c4)c3c2c1 [Compound 16, 3-(3,8-dimethyl-9H-pyrido[2,3-b]indol-5-yl)-N,N-dimethylbenzenesulfonamide]	5.6 to 8.5
CCS(=O)(=O)c1cccc(-c2ccc(OCC3CCN(C)CC3)c3[nH]c4ncc(C(F)(F)F)cc4c23)c1 [Compound 202, 5-(3-(ethylsulfonyl)phenyl)-8-((1-methylpiperidin-4-yl)methoxy)-3-(trifluoromethyl)-9H-pyrido[2,3-b]indole]	8.6 to 13
CCS(=O)(=O)c1cccc(-c2ccc(OCC3CCN(C)CC3)c3[nH]c4ncc(C#N)cc4c23)c1 [Compound 203, 5-(3-(ethylsulfonyl)phenyl)-8-((1-methylpiperidin-4-yl)methoxy)-9H-pyrido[2,3-b]indole-3-carbonitrile]	5.6 to 8.5
Cc1cnc2[nH]c3cc(C(=O)O)cc(SCc4ccccc4)c3c2c1 [Compound 151, 5-(benzylthio)-3-methyl-9H-pyrido[2,3-b]indole-7-carboxylic acid]	> 13
CCS(=O)(=O)c1cccc(-c2c(Cl)cnc3[nH]c4c(OC)cccc4c23)c1 [Compound 464, 3-chloro-4-(3-(ethylsulfonyl)phenyl)-8-methoxy-9H-pyrido[2,3-b]indole]	5.6 to 8.5
Cc1cnc2[nH]c3c(OC[C@@H](CN(C)C)OP(=O)(O)O)ccc(-c4cccc(S(=O)(=O)C5CC5)c4)c3c2c1 [Compound 315, (R)-1-(5-(3-(cyclopropylsulfonyl)phenyl)-3-methyl-9H-pyrido[2,3-b]indol-8-yloxy)-3-(dimethylamino)propan-2-yl dihydrogen phosphate]	< 4
Cc1cnc2[nH]c3c(OCCCN4CCC(O)CC4)ccc(-c4cccc(S(=O)(=O)C5CC5)c4)c3c2c1 [Compound 300, 1-(3-(5-(3-(cyclopropylsulfonyl)phenyl)-3-methyl-9H-pyrido[2,3-b]indol-8-yloxy)propyl)piperidin-4-ol]	< 4

Now from value to compound:

IC50 [nM]	SMILES
< 4	CCS(=O)(=O)c1cccc(-c2cc(F)c(OCCCN(C)C)c3[nH]c4ncc(Cl)cc4c23)c1 [Compound 205, 3-(3-chloro-5-(3-(ethylsulfonyl)phenyl)-7-fluoro-9H-pyrido[2,3-b]indol-8-yloxy)-N,N-dimethylpropan-1-amine]
8.6 to 13	CCN(CCO)CCOc1ccc(-c2cccc(S(=O)(=O)C3CC3)c2)c2c1[nH]c1ncc(C)cc12 [Compound 318, 2-((2-(5-(3-(cyclopropylsulfonyl)phenyl)-3-methyl-9H-pyrido[2,3-b]indol-8-yloxy)ethyl)(ethyl)amino)ethanol]
8.6 to 13	CCN(CC)CCCOc1ccc(-c2cccc(S(=O)(=O)CC)c2)c2c1[nH]c1ncc(C)cc12 [Compound 425, N,N-diethyl-3-(5-(3-(ethylsulfonyl)phenyl)-3-methyl-9H-pyrido[2,3-b]indol-8-yloxy)propan-1-amine]
4 to 5.5	CCS(=O)(=O)c1cccc(-c2ccc(OC[C@H](C)O)c3[nH]c4ncc(C)cc4c23)c1 [Compound 234, (S)-1-(5-(3-(ethylsulfonyl)phenyl)-3-methyl-9H-pyrido[2,3-b]indol-8-yloxy)propan-2-ol]
< 4	CCS(=O)(=O)c1cccc(-c2ccc(OCCCN(C)CCOP(=O)(O)O)c3[nH]c4ncc(C)cc4c23)c1 [Compound 308, 2-((3-(5-(3-(ethylsulfonyl)phenyl)-3-methyl-9H-pyrido[2,3-b]indol-8-yloxy)propyl)(methyl)amino)ethyl dihydrogen phosphate]
5.6 to 8.5	CCN(CCO)CCCOc1ccc(-c2cccc(C(=O)NC3CC3)c2)c2c1[nH]c1ncc(C)cc12 [Compound 273, N-cyclopropyl-3-(8-(3-(ethyl(2-hydroxyethyl)amino)propoxy)-3-methyl-9H-pyrido[2,3-b]indol-5-yl)benzamide]
5.6 to 8.5	CCN(CCCOc1ccc(-c2cccc(C(=O)NC3CC3)c2)c2c1[nH]c1ncc(C)cc12)CCOP(=O)(O)O [Compound 275, 2-((3-(5-(3-(cyclopropylcarbamoyl)phenyl)-3-methyl-9H-pyrido[2,3-b]indol-8-yloxy)propyl)(ethyl)amino)ethyl dihydrogen phosphate]
< 4	CCN(CCO)CCCOc1ccc(-c2cccc(S(=O)(=O)CC)c2)c2c1[nH]c1ncc(Cl)cc12 [Compound 293, 2-((3-(3-chloro-5-(3-(ethylsulfonyl)phenyl)-9H-pyrido[2,3-b]indol-8-yloxy)propyl)(ethyl)amino)ethanol]
5.6 to 8.5	CCN(CC)CCOc1ccc(-c2cccc(S(=O)(=O)CC)c2)c2c1[nH]c1ncc(Cl)cc12 [Compound 221, 2-(3-chloro-5-(3-(ethylsulfonyl)phenyl)-9H-pyrido[2,3-b]indol-8-yloxy)-N,N-diethylethanamine]
> 13	CCS(=O)(=O)c1cccc(-c2ccc(OCCC#N)c3[nH]c4ncc(Cl)cc4c23)c1 [Compound 256, 3-(3-chloro-5-(3-(ethylsulfonyl)phenyl)-9H-pyrido[2,3-b]indol-8-yloxy)propanenitrile]
5.6 to 8.5	CCS(=O)(=O)c1cccc(-c2ccc(OCC(F)(F)F)c3[nH]c4ncc(C)cc4c23)c1 [Compound 173, 5-(3-(ethylsulfonyl)phenyl)-3-methyl-8-(2,2,2-trifluoroethoxy)-9H-pyrido[2,3-b]indole]

— US20090312288A1 (TAKEDA PHARMACEUTICAL COMPANY LIMITED, priority 2008, published 2009)
